From patent EP3033337B1, “SUBSTITUTED IMIDAZOLES AS N-TYPE CALCIUM CHANNEL BLOCKERS” (Janssen Pharmaceutica NV, priority 2013, dated 2015) come the findings set out here.

The target of experiment [1] is T1, human N-type Ca channel (Homo sapiens, UniProt Q00975). The experiment is described as follows: Calcium influx assay (FDSS), KCl depolarization, Fluo8 dye. It is filed as cell-based. Details: host or cells: HEK 293. The method, boiled down: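 HEK293 cells stably expressing the human N-type Ca channel were loaded with Fluo8 and washed in choline-based buffer (pH 7.2, 2 mM CaCl2, 2 mM KCl). Cells were preincubated with serially diluted compound for 15 min in the dark. Ca influx was then recorded by fluorescence after depolarization with 100 mM KCl.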
T1 sequence (Q00975 whole entry): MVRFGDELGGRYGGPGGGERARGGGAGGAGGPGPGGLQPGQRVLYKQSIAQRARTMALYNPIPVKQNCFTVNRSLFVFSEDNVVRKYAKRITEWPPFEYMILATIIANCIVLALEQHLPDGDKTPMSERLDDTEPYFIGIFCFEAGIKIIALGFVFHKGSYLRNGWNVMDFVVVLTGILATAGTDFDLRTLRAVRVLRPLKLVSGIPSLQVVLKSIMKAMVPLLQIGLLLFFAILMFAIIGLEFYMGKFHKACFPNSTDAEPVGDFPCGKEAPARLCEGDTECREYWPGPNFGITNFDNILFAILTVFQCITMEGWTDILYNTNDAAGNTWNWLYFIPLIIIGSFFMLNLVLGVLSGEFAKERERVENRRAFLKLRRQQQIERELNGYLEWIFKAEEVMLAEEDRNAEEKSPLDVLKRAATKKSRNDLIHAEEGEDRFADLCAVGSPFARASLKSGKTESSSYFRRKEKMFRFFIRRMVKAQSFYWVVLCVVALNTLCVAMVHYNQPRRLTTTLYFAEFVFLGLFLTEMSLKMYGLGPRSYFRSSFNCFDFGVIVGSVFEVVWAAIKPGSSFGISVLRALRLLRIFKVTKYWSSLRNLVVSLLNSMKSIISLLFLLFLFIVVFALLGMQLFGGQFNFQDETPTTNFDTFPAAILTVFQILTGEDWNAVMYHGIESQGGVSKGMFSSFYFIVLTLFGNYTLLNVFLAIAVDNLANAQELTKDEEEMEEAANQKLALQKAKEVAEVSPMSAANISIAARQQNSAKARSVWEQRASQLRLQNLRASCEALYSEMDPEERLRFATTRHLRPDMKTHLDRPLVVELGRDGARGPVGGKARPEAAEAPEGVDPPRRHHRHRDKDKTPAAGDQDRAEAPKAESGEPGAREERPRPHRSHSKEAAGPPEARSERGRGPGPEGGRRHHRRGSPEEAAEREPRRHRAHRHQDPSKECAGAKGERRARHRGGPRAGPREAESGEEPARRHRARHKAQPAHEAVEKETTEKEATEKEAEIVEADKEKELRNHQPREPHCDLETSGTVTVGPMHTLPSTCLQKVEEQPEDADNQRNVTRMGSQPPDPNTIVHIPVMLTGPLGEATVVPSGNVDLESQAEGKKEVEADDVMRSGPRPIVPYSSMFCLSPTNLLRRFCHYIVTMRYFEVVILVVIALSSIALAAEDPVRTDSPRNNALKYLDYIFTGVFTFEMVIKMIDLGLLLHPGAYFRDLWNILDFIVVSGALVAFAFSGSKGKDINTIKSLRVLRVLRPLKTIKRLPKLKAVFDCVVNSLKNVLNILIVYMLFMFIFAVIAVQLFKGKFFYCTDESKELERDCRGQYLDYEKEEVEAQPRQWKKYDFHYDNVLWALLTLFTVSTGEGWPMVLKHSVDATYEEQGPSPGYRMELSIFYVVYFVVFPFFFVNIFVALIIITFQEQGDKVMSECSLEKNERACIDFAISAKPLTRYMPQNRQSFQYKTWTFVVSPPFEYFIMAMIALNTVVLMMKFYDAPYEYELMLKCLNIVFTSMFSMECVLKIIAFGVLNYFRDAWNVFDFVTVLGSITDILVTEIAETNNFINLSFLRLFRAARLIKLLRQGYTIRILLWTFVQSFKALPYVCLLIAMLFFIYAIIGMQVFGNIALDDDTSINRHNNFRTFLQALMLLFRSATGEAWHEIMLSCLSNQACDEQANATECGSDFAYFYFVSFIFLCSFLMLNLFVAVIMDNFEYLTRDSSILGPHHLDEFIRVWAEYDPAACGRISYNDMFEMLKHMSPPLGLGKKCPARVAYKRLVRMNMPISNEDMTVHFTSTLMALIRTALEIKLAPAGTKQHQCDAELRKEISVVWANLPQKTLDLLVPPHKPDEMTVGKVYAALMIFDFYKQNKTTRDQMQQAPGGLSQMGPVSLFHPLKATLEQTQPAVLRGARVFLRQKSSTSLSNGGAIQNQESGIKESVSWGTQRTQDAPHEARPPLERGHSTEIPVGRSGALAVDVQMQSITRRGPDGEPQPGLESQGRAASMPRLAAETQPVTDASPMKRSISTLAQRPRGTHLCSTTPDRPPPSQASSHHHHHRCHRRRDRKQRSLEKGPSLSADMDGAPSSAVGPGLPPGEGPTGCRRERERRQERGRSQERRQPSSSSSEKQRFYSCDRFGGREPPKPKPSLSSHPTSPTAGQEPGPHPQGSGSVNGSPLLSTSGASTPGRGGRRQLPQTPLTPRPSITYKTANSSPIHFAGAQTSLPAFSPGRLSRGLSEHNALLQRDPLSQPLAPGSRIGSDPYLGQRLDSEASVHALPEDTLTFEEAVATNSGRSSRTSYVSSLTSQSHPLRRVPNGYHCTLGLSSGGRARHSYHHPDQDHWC
T1 sequence (P54284 whole entry partner): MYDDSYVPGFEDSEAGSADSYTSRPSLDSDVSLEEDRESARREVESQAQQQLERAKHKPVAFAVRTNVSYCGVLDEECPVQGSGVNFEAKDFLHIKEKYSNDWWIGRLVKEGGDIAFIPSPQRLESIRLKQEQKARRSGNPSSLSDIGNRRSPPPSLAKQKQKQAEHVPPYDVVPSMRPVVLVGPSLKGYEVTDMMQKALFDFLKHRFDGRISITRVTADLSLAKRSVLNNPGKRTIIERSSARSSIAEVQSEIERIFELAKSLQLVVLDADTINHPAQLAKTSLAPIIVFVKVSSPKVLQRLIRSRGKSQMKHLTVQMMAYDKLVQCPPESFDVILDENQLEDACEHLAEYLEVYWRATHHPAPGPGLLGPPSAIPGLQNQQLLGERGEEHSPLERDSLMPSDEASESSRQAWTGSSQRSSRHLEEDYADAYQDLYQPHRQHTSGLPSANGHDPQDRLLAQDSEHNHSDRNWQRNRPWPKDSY
T1 sequence (P54289 25-956 partner limits assumed): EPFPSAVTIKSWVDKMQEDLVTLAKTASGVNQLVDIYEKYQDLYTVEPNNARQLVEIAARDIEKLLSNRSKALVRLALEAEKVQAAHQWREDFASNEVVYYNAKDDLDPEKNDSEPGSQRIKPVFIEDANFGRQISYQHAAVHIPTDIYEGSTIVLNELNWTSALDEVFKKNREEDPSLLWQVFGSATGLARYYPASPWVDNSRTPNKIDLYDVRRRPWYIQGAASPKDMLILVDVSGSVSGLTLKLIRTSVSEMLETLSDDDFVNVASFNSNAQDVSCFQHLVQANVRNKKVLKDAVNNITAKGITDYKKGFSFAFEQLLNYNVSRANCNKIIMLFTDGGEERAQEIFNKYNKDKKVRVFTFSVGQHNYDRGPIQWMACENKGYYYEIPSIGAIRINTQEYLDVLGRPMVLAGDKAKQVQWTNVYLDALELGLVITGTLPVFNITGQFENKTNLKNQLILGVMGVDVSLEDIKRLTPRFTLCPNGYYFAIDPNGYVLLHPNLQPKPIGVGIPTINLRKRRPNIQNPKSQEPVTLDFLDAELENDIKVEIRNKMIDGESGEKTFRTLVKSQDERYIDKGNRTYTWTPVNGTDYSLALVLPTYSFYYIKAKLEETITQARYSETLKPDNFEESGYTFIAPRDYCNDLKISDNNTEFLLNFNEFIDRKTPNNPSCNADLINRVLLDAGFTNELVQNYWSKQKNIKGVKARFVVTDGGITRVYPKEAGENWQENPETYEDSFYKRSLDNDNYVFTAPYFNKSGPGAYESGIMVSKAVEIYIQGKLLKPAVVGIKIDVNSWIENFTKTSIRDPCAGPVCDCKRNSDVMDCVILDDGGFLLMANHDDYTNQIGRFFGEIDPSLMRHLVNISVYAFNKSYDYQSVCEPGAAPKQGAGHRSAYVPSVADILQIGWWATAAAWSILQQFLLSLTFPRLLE
T1 sequence (P54289 957-1103 partner limits assumed): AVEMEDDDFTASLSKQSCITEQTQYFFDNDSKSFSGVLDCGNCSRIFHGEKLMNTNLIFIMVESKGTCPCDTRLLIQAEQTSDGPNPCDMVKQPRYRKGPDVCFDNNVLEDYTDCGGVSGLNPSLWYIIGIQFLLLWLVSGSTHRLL

Experiment [2] addresses T1, human N-type Ca channel. Briefly: Electrophysiological response, QPatch (depolarization -80 mV to +20 mV). Particulars: for N Type IC50 Data Qpatch Pulse=1 / N Type IC50 Data Qpatch Pulse=15: concentration range 0.01-0.3 µM. A general note: The patch-clamp technique gives a direct electrical read-out from membranes.
Experimental: The recombinant cell line described above was used in the measurement of electrophysiological properties with QPatch (Sophion). Cells were maintained in culture as mentioned above. Prior to the experiment, the flasks were moved to 30 °C and incubated for 48-72 hrs. On the day of assaying, cells were detached and harvested. The cell pellet was re-suspended in SMF4HEK (HyClone)/25mM HEPS at 2-5 million/ mL and placed on the QStirrer of the QPatch for 30-60 min prior to the start of the assay. […] Microtiter-Plate/Reference Buffer contained 140 mM TEA-Cl, 10mM BaCl2, 0.8 mM MgCl2, 10 mM HEPES pH ∼7.4 adjusted with TEA-OH/HCl, and ∼300mOsm. Cells were transferred to a QPatch 48 plate and gigaseal was formed. The plate was perfused with intracellular and extracellular buffer. […] In brief, cells were depolarized from resting potential of -80 mV to +20 mV and current was recorded. Data was plotted as percent inhibition vs concentration of the compound and IC50 values were generated using Graphpad Prism non-linear regression analysis.
Where [3] appears, read: HEK 293 cells expressing human N-type Ca channel, 100 mM KCl, read-out: N Type IC50 Data FDSS.
The mark [4] stands for this setting: N Type IC50 Data Qpatch Pulse=1, Pulse=1, concentration range 0.3-10 µM.
[5] abbreviates: N Type IC50 Data Qpatch Pulse=15, Pulse=15, concentration range 0.3-10 µM.
The mark [6] stands for this setting: read-out: N Type IC50 Data Qpatch Pulse=15, Pulse=15, concentration range 0.01-1 µM.
Setting [7] is: read-out: Qpatch Pulse=1 (percent inhibition).
Where [8] appears, read: read-out: Qpatch Pulse=15 (percent inhibition).
[9] abbreviates: N Type IC50 Data Qpatch Pulse=1, Pulse=1, concentration range 0.01-1 µM.
Where [10] appears, read: N Type IC50 Data Qpatch Pulse=15, Pulse=15, concentration range 0.01-1 µM.

Read-outs that look alike come from different tables or passages of the source.

On to `COc1ccccc1-c1nc(C2(O)CC(C)(C)OC(C)(C)C2)cn1-c1ccc(F)c(F)c1` [Compound 107, 4-(1-(3,4-difluorophenyl)-2-(2-methoxyphenyl)-1H-imidazol-4-yl)-2,2,6,6-tetramethyltetrahydro-2H-pyran-4-ol], for which the IC50 – broadly, the concentration that gives 50% inhibition – came out at 0.43 µM on human N-type Ca channel [1] (setting [3]), 3.53 µM against human N-type Ca channel [2] (setting [4]) and 2.42 µM against human N-type Ca channel [2] (setting [5]).

As to `COc1ccc(-n2cc(C3CC(C)(C)OC(C)(C)C3)nc2-c2cccnc2OC)cc1C#N` [Compound 85, 2-methoxy-5-(2-(2-methoxypyridin-3-yl)-4-(2,2,6,6-tetramethyltetrahydro-2H-pyran-4-yl)-1H-imidazol-1-yl)benzonitrile], the IC50 was 6.48 µM on human N-type Ca channel [1] (setting [3]) and greater than 1 µM on human N-type Ca channel [2] (setting [6]).

For the compound `COc1ncccc1-c1nc(C2CC(C)(C)OC(C)(C)C2)cn1-c1ccc(F)c(Br)c1` [Compound 64, 3-(1-(3-bromo-4-fluorophenyl)-4-(2,2,6,6-tetramethyltetrahydro-2H-pyran-4-yl)-1H-imidazol-2-yl)-2-methoxypyridine], the IC50 was 0.36 µM on human N-type Ca channel [1] (setting [3]), 4.06 µM on human N-type Ca channel [2] (setting [4]) and 1.72 µM against human N-type Ca channel [2] (setting [5]).

As to `COc1ccccc1-c1nc(C2(O)CC(C)(C)OC(C)(C)C2)cn1-c1ccc(C(F)(F)F)nc1` [Compound 109, 4-(2-(2-methoxyphenyl)-1-(6-(trifluoromethyl)pyridin-3-yl)-1H-imidazol-4-yl)-2,2,6,6-tetramethyltetrahydro-2H-pyran-4-ol], the IC50 at human N-type Ca channel [1] (setting [3]) is 0.322 µM; on human N-type Ca channel [2] (setting [4]), 4.5 µM; on human N-type Ca channel [2] (setting [5]), 7.9 µM.

For `COc1ncccc1-c1nc(C2CC(C)(C)OC(C)(C)C2)cn1-c1cc(F)c(C#N)c(F)c1` [Compound 82, 2,6-difluoro-4-(2-(2-methoxypyridin-3-yl)-4-(2,2,6,6-tetramethyltetrahydro-2H-pyran-4-yl)-1H-imidazol-1-yl) benzonitrile], the IC50 on human N-type Ca channel [1] (setting [3]) came to 3.26 µM. Also, the “N Type IC50 Data Qpatch Pulse=1” value on human N-type Ca channel [2] (Pulse=1) was “poor fit(0.01-0.3 µM)”. In addition, at human N-type Ca channel [2] (Pulse=15), the “N Type IC50 Data Qpatch Pulse=15” value is recorded as “poor fit(0.01-0.3 µM)”.

As for `COc1ccccc1-c1nc(C2(O)CC(C)(C)OC(C)(C)C2)cn1-c1ccc(Cl)cc1` [Compound 102, 4-(1-(4-chlorophenyl)-2-(2-methoxyphenyl)-1H-imidazol-4-yl)-2,2,6,6-tetramethyltetrahydro-2H-pyran-4-ol], the IC50 on human N-type Ca channel [1] (setting [3]) was 0.037 µM; against human N-type Ca channel [2] (setting [5]), 1.74 µM. Moreover, the inhibition (as a rule, the relative decrease from the control value, in per cent) at 10 µM at human N-type Ca channel [2] (setting [7]) came to 48%.

`COc1ncccc1-c1nc(C2CC(C)(C)OC(C)(C)C2)cn1-c1ccc(C#N)c(F)c1` [Compound 80, 2-fluoro-4-(2-(2-methoxypyridin-3-yl)-4-(2,2,6,6-tetramethyltetrahydro-2H-pyran-4-yl)-1H-imidazol-1-yl)benzonitrile]: the IC50 at human N-type Ca channel [1] (setting [3]) is 0.333 µM. The inhibition at 10 µM on human N-type Ca channel [2] (setting [8]) is 28%.

For the compound `CCOc1ncccc1-c1nc(C2CC(C)(C)OC(C)(C)C2)cn1-c1ccc(F)c(F)c1` [Compound 52, 3-(1-(3,4-difluorophenyl)-4-(2,2,6,6-tetramethyltetrahydro-2H-pyran-4-yl)-1H-imidazol-2-yl)-2-ethoxypyridine], the IC50 was 0.115 µM at human N-type Ca channel [1] (setting [3]), 0.721 µM against human N-type Ca channel [2] (setting [9]) and greater than 1 µM on human N-type Ca channel [2] (setting [6]).

`COc1ccccc1-c1nc(C2CC(C)(C)OC(C)(C)C2)cn1-c1ccc(Cl)c(F)c1` [Compound 41, 1-(4-chloro-3-fluorophenyl)-2-(2-methoxyphenyl)-4-(2,2,6,6-tetramethyltetrahydro-2H-pyran-4-yl)-1H-imidazole]: the IC50 came out at 0.131 µM at human N-type Ca channel [1] (setting [3]) and 0.602 µM at human N-type Ca channel [2] (setting [5]). Also, the inhibition at 10 µM at human N-type Ca channel [2] (setting [7]) is 71%.

As for `COc1ncccc1-c1nc(C2(O)CC(C)(C)OC(C)(C)C2)cn1-c1ccc(F)c(Cl)c1` [Compound 110, 4-(1-(3-chloro-4-fluorophenyl)-2-(2-methoxypyridin-3-yl)-1H-imidazol-4-yl)-2,2,6,6-tetramethyltetrahydro-2H-pyran-4-ol], on human N-type Ca channel [1] (setting [3]), the IC50 is 0.385 µM. Moreover, the inhibition at 10 µM was determined as 44% on human N-type Ca channel [2] (setting [7]) and 30% at human N-type Ca channel [2] (setting [8]).

Regarding `COc1cnccc1-c1nc(C2CC(C)(C)OC(C)(C)C2)cn1-c1ccc(Cl)cc1` [Compound 66, 4-(1-(4-chlorophenyl)-4-(2,2,6,6-tetramethyltetrahydro-2H-pyran-4-yl)-1H-imidazol-2-yl)-3-methoxypyridine], the figures for the half-inhibitory concentration (IC50) on human N-type Ca channel [1] (setting [3]) and against human N-type Ca channel [2] (setting [5]) were 0.049 µM and 1.3 µM, respectively.

For the compound `COc1ncccc1-c1nc(C2CC(C)(C)OC(C)(C)C2)cn1-c1ccc(C#N)c(Cl)c1` [Compound 78, 2-chloro-4-(2-(2-methoxypyridin-3-yl)-4-(2,2,6,6-tetramethyltetrahydro-2H-pyran-4-yl)-1H-imidazol-1-yl)benzonitrile], the IC50 is 0.234 µM on human N-type Ca channel [1] (setting [3]) and greater than 1 µM on human N-type Ca channel [2] (setting [6]).

Consider `COc1ccccc1-c1nc(C2CC(C)(C)OC(C)(C)C2)cn1-c1ccc(F)c(Br)c1` [Compound 63, 1-(3-bromo-4-fluorophenyl)-2-(2-methoxyphenyl)-4-(2,2,6,6-tetramethyltetrahydro-2H-pyran-4-yl)-1H-imidazole], for which the IC50 at human N-type Ca channel [1] (setting [3]) is 0.213 µM; against human N-type Ca channel [2] (setting [5]), 3.5 µM. Besides, on human N-type Ca channel [2] (setting [7]), the inhibition at 10 µM is 53%.

For the compound `COc1ccccc1-c1nc(C2CC(C)(C)OC(C)(C)C2)c(C)n1-c1ccc(Cl)cc1` [Compound 90, 1-(4-chlorophenyl)-2-(2-methoxyphenyl)-5-methyl-4-(2,2,6,6-tetramethyltetrahydro-2H-pyran-4-yl)-1H-imidazole], the IC50 on human N-type Ca channel [1] (setting [3]) is 0.12 µM. Besides, the “N Type IC50 Data Qpatch Pulse=1” value on human N-type Ca channel [2] (Pulse=1) was “poor fit(0.01-0.3 µM)”. Further, the “N Type IC50 Data Qpatch Pulse=15” value on human N-type Ca channel [2] (Pulse=15) is “poor fit(0.01-0.3 µM)”.

Regarding `COc1ccccc1-c1nc(C2CC(C)(C)OC(C)(C)C2)cn1-c1cccc(C#N)c1` [Compound 32, 3-(2-(2-methoxyphenyl)-4-(2,2,6,6-tetramethyltetrahydro-2H-pyran-4-yl)-1H-imidazol-1-yl)benzonitrile], the IC50 on human N-type Ca channel [1] (setting [3]) is 0.278 µM; against human N-type Ca channel [2] (setting [9]) it was greater than 1 µM; at human N-type Ca channel [2] (setting [6]), greater than 1 µM.

Turning to `COc1ccccc1-c1nc(C2CC(C)(C)OC(C)(C)C2)cn1-c1cnc(C)nc1` [Compound 8, 5-(2-(2-methoxyphenyl)-4-(2,2,6,6-tetramethyltetrahydro-2H-pyran-4-yl)-1H-imidazol-1-yl)-2-mithylpyrimidine], the IC50 on human N-type Ca channel [1] (setting [3]) was greater than 10 µM; against human N-type Ca channel [2] (setting [9]), 0.508 µM; against human N-type Ca channel [2] (setting [10]), greater than 1 µM.

For `COc1ncccc1-c1nc(C2CC(C)(C)OC(C)(C)C2)cn1-c1ccc(Br)c(F)c1` [Compound 65, 3-(1-(4-bromo-3-fluorophenyl)-4-(2,2,6,6-tetramethyltetrahydro-2H-pyran-4-yl)-1H-imidazol-2-yl)-2-methoxypyridine], the IC50 at human N-type Ca channel [1] (setting [3]) came to 0.225 µM; on human N-type Ca channel [2] (setting [5]), 8.6 µM. Also, the inhibition at 10 µM at human N-type Ca channel [2] (setting [7]) came out at 58%.

Regarding `COc1ccccc1-c1nc(C2CC(C)(C)OC(C)(C)C2)cn1-c1ccc(C)nc1` [Compound 5, 5-(2-(2-methoxyphenyl)-4-(2,2,6,6-tetramethyltetrahydro-2H-pyran-4-yl)-1H-imidazol-1-yl)-2-methylpyridine], the IC50 on human N-type Ca channel [1] (setting [3]) turned out to be 0.191 µM; against human N-type Ca channel [2] (setting [4]) it was 5.9 µM.

Consider `COc1ncccc1-c1nc(C2(O)CC(C)(C)OC(C)(C)C2)cn1-c1ccc(C#N)c(F)c1` [Compound 119, 2-fluoro-4-(4-(4-hydroxy-2,2,6,6-tetramethyltetrahydro-2H-pyran-4-yl)-2-(2-methoxypyridin-3-yl)-1H-imidazol-1-yl)benzonitrile], for which the half-inhibitory concentration (IC50) on human N-type Ca channel [1] (setting [3]) is 1.29 µM. In addition, on human N-type Ca channel [2] (setting [7]), the inhibition at 10 µM is 28%.

For `CC1(C)CC(c2cn(-c3ccc(C#N)cc3)c(CC3CC3)n2)CC(C)(C)O1` [Compound 58, 4-(2-(cyclopropylmethyl)-4-(2,2,6,6-tetramethyltetrahydro-2H-pyran-4-yl)-1H-imidazol-1-yl)benzonitrile], the IC50 on human N-type Ca channel [1] (setting [3]) was 4.81 µM; at human N-type Ca channel [2] (read-out: N Type IC50 Data Qpatch Pulse=1, Pulse=1, concentration range 0.01-1 µM), greater than 1 µM; at human N-type Ca channel [2] (setting [6]) it was greater than 1 µM.

Take `COc1ccccc1-c1nc(C2CC(C)(C)OC(C)(C)C2)cn1S(=O)(=O)CC(C)C` [Compound 96, 1-(isobutylsulfonyl)-2-(2-methoxyphenyl)-4-(2,2,6,6-tetramethyltetrahydro-2H-pyran-4-yl)-1H-imidazole]: the IC50 on human N-type Ca channel [1] worked out at 0.768 µM; against human N-type Ca channel [2] (setting [5]) it was 5.4 µM.

Turning to `COc1ccccc1-c1nc(C2(O)CC(C)(C)OC(C)(C)C2)cn1-c1ccc(C#N)c(F)c1` [Compound 118, 2-fluoro-4-(4-(4-hydroxy-2,2,6,6-tetramethyltetrahydro-2H-pyran-4-yl)-2-(2-methoxyphenyl)-1H-imidazol-1-yl)benzonitrile], the figures for the IC50 on human N-type Ca channel [1] (setting [3]) and at human N-type Ca channel [2] (setting [4]) were 0.15 µM and 8.1 µM, respectively.

With `COc1nccnc1-c1nc(C2CC(C)(C)OC(C)(C)C2)cn1-c1ccc(Cl)cc1` [Compound 50, 2-(1-(4-chlorophenyl)-4-(2,2,6,6-tetramethyltetrahydro-2H-pyran-4-yl)-1H-imidazol-2-yl)-3-methoxypyrazine], the IC50 on human N-type Ca channel [1] (setting [3]) was 0.215 µM; against human N-type Ca channel [2] (setting [9]), greater than 1 µM; against human N-type Ca channel [2] (setting [10]) it was 0.971 µM.

`CCOc1ncccc1-c1nc(C2(O)CC(C)(C)OC(C)(C)C2)cn1-c1ccc(Cl)cc1` [Compound 114, 4-(1-(4-chlorophenyl)-2-(2-ethoxypyridin-3-yl)-1H-imidazol-4-yl)-2,2,6,6-tetramethyltetrahydro-2H-pyran-4-ol]: the IC50 at human N-type Ca channel [1] (setting [3]) is 0.607 µM; against human N-type Ca channel [2] (setting [9]), 0.668 µM; against human N-type Ca channel [2] (setting [10]), greater than 1 µM.
